Laboratory results taken from patent US9725445B2, “Cycloalkyl nitrile pyrazolo pyridones as Janus kinase inhibitors” (Merck Sharp & Dohme Corp., priority 2013, dated 2017).

Columns and labels:
JAK1 = JAK1 (Homo sapiens (Human), UniProt P23458); assay: Jak biochemical HTRF assay, JAK1; settings: HTRF biochemical assay, recombinant GST-tagged catalytic domain; read-out: JAK1 IC50
JAK2 = JAK2 (Homo sapiens (Human), UniProt O60674); assay: Jak biochemical HTRF assay, JAK2; settings: HTRF biochemical assay, recombinant GST-tagged catalytic domain; read-out: JAK2 IC50
Chain of JAK2 (O60674 849-1124): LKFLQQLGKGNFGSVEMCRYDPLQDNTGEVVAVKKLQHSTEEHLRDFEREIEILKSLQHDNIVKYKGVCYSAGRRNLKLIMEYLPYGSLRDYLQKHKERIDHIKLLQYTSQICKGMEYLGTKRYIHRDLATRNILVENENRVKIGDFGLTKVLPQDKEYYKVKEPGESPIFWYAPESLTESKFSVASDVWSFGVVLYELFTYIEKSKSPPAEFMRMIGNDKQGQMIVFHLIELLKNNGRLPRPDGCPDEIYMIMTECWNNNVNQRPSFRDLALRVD

Chain of JAK1 (P23458 875-1153): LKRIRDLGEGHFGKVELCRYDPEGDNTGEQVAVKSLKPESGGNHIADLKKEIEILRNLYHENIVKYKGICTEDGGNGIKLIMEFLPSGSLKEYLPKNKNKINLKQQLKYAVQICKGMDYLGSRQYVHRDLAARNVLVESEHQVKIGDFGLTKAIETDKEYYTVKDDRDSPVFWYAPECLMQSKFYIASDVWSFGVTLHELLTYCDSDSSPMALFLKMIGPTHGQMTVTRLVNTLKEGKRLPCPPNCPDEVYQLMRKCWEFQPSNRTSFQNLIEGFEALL

| Structure (SMILES) | IC50 (JAK1) [nM] | IC50 (JAK2) [nM] |
| --- | --- | --- |
| N#C[C@H]1CCC[C@@H]1n1nc(Nc2ccc(C(N)C(F)(F)F)cc2)c2c(=O)[nH]ccc21 (single isomer, unassigned) [Example 3-137, (1S,2S)-2-[3-({4-[(1S or 1R)-1-amino-2,2,2-trifluoroethyl]phenyl}amino)-4-oxo-4,5-dihydro-1H-pyrazolo[4,3-c]pyridin-1-yl]cyclopentanecarbonitrile] | 0.22 | 0.59 |
| CC(C)(C)N1Cc2cc(Nc3nn([C@H]4CCC[C@@H]4C#N)c4cc[nH]c(=O)c34)ccc2S1(=O)=O [Example 3-100, (1S,2S)-2-{3-[(2-tert-butyl-1,1-dioxido-2,3-dihydro-1,2-benzisothiazol-5-yl)amino]-4-oxo-4,5-dihydro-1H-pyrazolo[4,3-c]pyridin-1-yl}cyclopentanecarbonitrile] | 0.043 | 0.28 |
| CC(O)(CO)c1cccc(Nc2nn([C@H]3CCCC[C@@H]3C#N)c3cc[nH]c(=O)c23)c1 (stereo partly drawn) [Example 11-1, (1S,2S)-2-(3-((3-(1,2-Dihydroxypropan-2-yl)phenyl)amino)-4-oxo-4,5-dihydro-1H-pyrazolo[4,3-c]pyridin-1-yl)cyclohexanecarbonitrile] | 2.5 | 4 |
| N#C[C@H]1CCCC[C@@H]1n1nc(Nc2ccc3c(c2)CN(CCO)S3(=O)=O)c2c(=O)[nH]ccc21 [Example 3-80, (1S,2S)-2-(3-{[2-(2-hydroxyethyl)-1,1-dioxido-2,3-dihydro-1,2-benzisothiazol-5-yl]amino}-4-oxo-4,5-dihydro-1H-pyrazolo[4,3-c]pyridin-1-yl)cyclohexanecarbonitrile] | 0.079 | 0.92 |
| N#C[C@H]1CCCC[C@@H]1n1nc(Nc2ccc3c(c2)CC(C(=O)O)C3)c2c(=O)[nH]ccc21 (stereo partly drawn) [Example 13-1, 5-((1-((1S,2S)-2-Cyanocyclohexyl)-4-oxo-4,5-dihydro-1H-pyrazolo[4,3-c]pyridin-3-yl)amino)-2,3-dihydro-1H-indene-2-carboxylic acid] | 0.47 | 3.4 |
| CC(C)(C)N1Cc2cc(Nc3nn([C@H]4CCCC[C@@H]4C#N)c4cc[nH]c(=O)c34)ccc2S1(=O)=O [Example 3-53, (1S,2S)-2-{3-[(2-tert-butyl-1,1-dioxido-2,3-dihydro-1,2-benzisothiazol-5-yl)amino]-4-oxo-4,5-dihydro-1H-pyrazolo[4,3-c]pyridin-1-yl}cyclohexanecarbonitrile] | 0.039 | 0.19 |
| N#C[C@@H]1CCCC[C@H]1n1nc(Nc2cccc(CNC(=O)c3ncccn3)c2)c2c(=O)[nH]ccc21 [Example 3-14, N-[3-({1-[(1R,2R)-2-cyanocyclohexyl]-4-oxo-4,5-dihydro-1H-pyrazolo[4,3-c]pyridin-3-yl}amino)benzyl]pyrimidine-2-carboxamide] | 38 | 68 |
| N#C[C@H]1CCCC[C@@H]1n1nc(Nc2ccc3c(c2)CN(C2CCCC2)C3=O)c2c(=O)[nH]ccc21 [Example 3-154, (1S,2S)-2-{3-[(2-cyclopentyl-1-oxo-2,3-dihydro-1H-isoindol-5-yl)amino]-4-oxo-4,5-dihydro-1H-pyrazolo[4,3-c]pyridin-1-yl}cyclohexanecarbonitrile] | 0.056 | 0.45 |
| CN(C)[C@@H]1CC[C@H](n2nc(Nc3ccc(OC(F)(F)F)cc3)c3c(=O)[nH]ccc32)[C@@H](C#N)C1 [Example 5-25, (1S,2S,5R)-5-(dimethylamino)-2-(4-oxo-3-((4-(trifluoromethoxy)phenyl)amino)-4,5-dihydro-1H-pyrazolo[4,3-c]pyridin-1-yl)cyclohexanecarbonitrile] | 0.96 | 22 |
| N#C[C@H]1CCCC[C@@H]1n1nc(Nc2cccc(Cn3cncn3)c2)c2c(=O)[nH]ccc21 [Example 3-50, (1S,2S)-2-(4-oxo-3-{[3-(1H-1,2,4-triazol-1-ylmethyl)phenyl]amino}-4,5-dihydro-1H-pyrazolo[4,3-c]pyridin-1-yl)cyclohexanecarbonitrile] | 0.5 | 1.3 |
